Source: patent US20220211846A1, “ABT-165 IN COMBINATION WITH FOLINIC ACID, 5-FLUOROURACIL, AND IRINOTECAN FOR THE TREATMENT OF CANCERS” (AbbVie Biotherapeutics Inc., priority 2017, published 2022)
Marks after values point to notes of the source that are not given here.

How the values were obtained:
human VEGF = assay: Binding affinity to VEGF
[1] = test system: DLL4-mediated Notch-1 activation; assay: Inhibition of DLL4-mediated Notch-1 activation; assay type: cell-based
[2] = test system: human peripheral blood cells (PBC) from normal donors; assay: Cytokine release by human peripheral blood cells; assay type: cell-based; settings: within expected range of negative control IgG1 antibodies
FcRn = FcRn (Homo sapiens, UniProt P55899); assay: Binding to FcRn; settings: compared with human IgG1
FcRn, sequence (P55899 24-297 limits assumed, species assumed): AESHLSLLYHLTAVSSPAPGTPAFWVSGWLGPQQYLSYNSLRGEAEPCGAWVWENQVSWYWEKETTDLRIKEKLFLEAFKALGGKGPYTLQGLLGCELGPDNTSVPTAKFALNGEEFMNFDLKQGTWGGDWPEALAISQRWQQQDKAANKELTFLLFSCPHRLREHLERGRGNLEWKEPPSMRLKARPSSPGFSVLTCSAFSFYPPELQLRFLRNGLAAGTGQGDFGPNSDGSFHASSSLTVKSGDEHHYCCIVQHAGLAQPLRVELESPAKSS
FcRn, sequence (P61769 21-119 partner, species assumed): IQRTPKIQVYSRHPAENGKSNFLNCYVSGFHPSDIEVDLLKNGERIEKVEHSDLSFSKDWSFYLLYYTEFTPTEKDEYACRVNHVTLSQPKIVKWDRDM

[3] = test system: HCT-116 human colon xenograft tumors; assay: HCT-116 colon xenograft model; assay type: in vivo, female SCID mice
Procedure: The effect of anti-DLL4-VEGF DVD-Igs (ABT-165) in combination with chemotherapy on tumor growth was evaluated on HCT-116 human colon xenograft tumors in female SCID mice. Briefly, 5×10^6 cells were inoculated subcutaneously into the right hind flank. Tumors were allowed to establish for 14 days, at which point tumor volume was determined using electronic caliper measurements using the formula: L×W^2/2. Mice were allocated into treatment groups (n=9 per group) so that each cohort had equivalent mean tumor volume of 192 mm^3 prior to initiation of therapy. Animals were dosed with 5-fluorouracil (5-FU), folinic acid (leucovorin), irinotecan, anti-VEGF mAb (AB014), and/or anti-DLL4-VEGF DVD-Ig (ABT-165) at the dose and schedule in Table 4. An anti-tetanus toxoid mAb (AB095) was used as a non-targeting isotype control. Tumor volume was measured twice a week for the duration of the experiment.

human DLL4 = human DLL4 (Homo sapiens, UniProt Q9NR61); assay: Binding affinity to DLL4

human VEGF, sequence (P15692 207-320 limits assumed): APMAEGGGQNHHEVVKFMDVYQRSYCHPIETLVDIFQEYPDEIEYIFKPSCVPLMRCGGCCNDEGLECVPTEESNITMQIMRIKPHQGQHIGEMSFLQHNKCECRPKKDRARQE

How did the “affinity to VEGF” value (human VEGF) turn out when “ABT-165: dual-variable domain humanized immunoglobulin with dual specificity for DLL4 and VEGF; light chain SEQ ID No. 15, heavy chain SEQ ID No. 16” was run?
The value was “nanomolar affinities”.

What about the “inhibition of DLL4-mediated Notch-1 activation” value [1] of the same substance?
The value was “potent inhibition”.

And the “ability to stimulate cytokine release” value [2]?
Its value is “low ability”.

And the “binding to FcRn” value (FcRn)?
Its value is “pH-dependent binding to FcRn within the expected range of human IgG1”.

And the “efficacy compared to anti-VEGF monoclonal antibody (alone or each with FOLFIRI)” value ([3]; colon cancer xenograft model, FIG. 1)?
Its value is “superior efficacy”.

And the “% TGI (percent tumor growth inhibition = 100 − (T/C × 100))” value ([3]; day 26 post size match, mean tumor volume vs treatment control group, dose and regimen as in Table 4, n=9 per group)?
The value was 67* %.

And the “affinity to DLL4” value (human DLL4)?
The value was “nanomolar affinities”.
